From US20250134866A1, “COMMENSAL SIGNALLING COMPOUNDS FOR TREATING OR PREVENTING MICROBIOME DYSFUNCTION IN THE SKIN OR MOUTH” (priority 2022, published 2025)

Key:
S. Aureus ATCC 6538 = assay: Growth of S. aureus culture in presence of EGT (optical density, 24 hours); format: cell-based; conditions: 0.001%, 0.05% or 0.1% (w/v) added upon inoculation, MH media, 37 C, OD monitored 24 hours
Method: (§1) The growth of two bacterial strains, one commensal containing EGT-synthetic genes (P. aeruginosa ATCC 27853) and one pathogen lacking such genes (S. Aureus ATCC 6538) were compared in the presence and absence of EGT. Each strain was adjusted to an OD600 of 0.2 in MH culture media, inoculated into 96-well plates and incubated at 37 C. The growth of the cultures were monitored for optical density for 24 hours. The S. aureus and P. aeruginosa cultures reached stationary phase after 15 and 2 hours, respectively. Addition of L-ergothioneine (99+% purity) at 0.001%, 0.05% or 0.1% (w/v) upon inoculation had no effect on the growth rate of either culture.

P. aeruginosa ATCC 27853 = assay: Growth of P. aeruginosa culture in presence of EGT (optical density, 24 hours); format: cell-based; conditions: 0.001%, 0.05% or 0.1% (w/v) added upon inoculation, MH media, 37 C, OD monitored 24 hours
Method: as §1

IL-8 = assay: Release of inflammatory cytokine IL-8 by human keratinocytes after treatment with S. aureus; format: cell-based; conditions: 24 hours pre-treatment, keratinocytes infected with S. aureus at multiplicity of infection of 10, 24 hours
Method: The present example examines the release of the inflammatory cytokine IL-8 by human keratinocytes after treatment with S. aureus. Although S. aureus is associated with atopic dermatitis, IL-8 […] as inflammatory cytokine in this disease (Li and Yosipovitch, 2020).
Infection of a keratinocyte culture at a multiplicity of infection of 10 increased the amount of IL-8 from low levels in uninfected cultures to an increase of 6,044% in 24 hours in infected cultures. Pre-treatment of the keratinocyte cultures with EGT for 24 hours reduced the release of IL-8 by 61% for 0.005% EGT, 75% for 0.01% EGT, and 82% for 0.05% EGT.

[1] = Skin redness of atopic dermatitis lesions, topical formula, dermospectrophotometer; format: in vivo, human; conditions: placebo 9%
Method: The present example tests the effect of EGT on skin inflammation in subjects with atopic dermatitis lesions.
Three topical formulas were prepared using a commercial formulation of EGT called MC-2, which is a granulated preparation of EGT mixed into mannitol. One formulation was a placebo, with only mannitol added. The second was a low dose formula containing EGT in the form of MC-2 added to a final concentration of 0.005% EGT (w/w). The third was a high dose formulation containing EGT in the form of MC-2 added to a final concentration of 0.05% EGT (w/w).
Subjects with patches of atopic dermatitis were recruited to the study and 16 were assigned to each of three arms: placebo, low dose EGT and high dose EGT. The subjects were 9 males and 39 females, representing each Fitzpatrick Skin Type (I-VI) in age range from 21 to 73 years old. The redness of the skin lesion was measured using a dermospectrophotometer and compared to adjacent uninvolved skin to determine a redness measure. The subjects used the test formula on the skin lesion twice a day for 4 weeks. The lesions were again measured with a dermospectrophotometer.

C[N+](C)(C)[C@@H](Cc1c[nH]c(=S)[nH]1)C(=O)[O-] [EGT]
effect on the growth rate of culture (S. Aureus ATCC 6538): no effect | effect on the growth rate of culture (P. aeruginosa ATCC 27853): no effect | reduction of release of IL-8 (IL-8; 0.005% EGT): 61% | reduction of release of IL-8 (IL-8; 0.01% EGT): 75% | reduction of release of IL-8 (IL-8; 0.05% EGT): 82% | redness reduction of skin lesion ([1]; high dose topical formula, 0.05% EGT (w/w) as MC-2, twice a day for 4 weeks): 50% | redness reduction of skin lesion ([1]; low dose topical formula, 0.005% EGT (w/w) as MC-2, twice a day for 4 weeks): 66%
